Source: patent publication US20180271808A1, “METHODS OF REDUCING CHEMORESISTANCE AND TREATING CANCER” (Mitchell Woods Pharmaceuticals, Inc., priority 2015, published 2018)
Where two headings read alike, the source gives them in different places.

Legend:
PANC-1 cells [1] = assay: [3H]-thymidine incorporation (proliferation / cytotoxicity) in PANC-1 cells; type: cell-based, human; conditions: for IC50: Homo sapiens; for fold decrease in calculated IC50 by MNF pretreatment: PANC-1, MNF 1 μM 24 hours pretreatment
Experimental: (§1) [^3H]-Thymidine incorporation studies. Cells were seeded in 24-well plates at 2.5×10^4 cells per well and grown for 24 hours at 37° C. The effect of MNF (0-10 μM) on [^3H]-thymidine incorporation into PANC-1, MDA-MB-231, and MCF-7 cells was investigated following procedures previously described in Paul, et al., Cannabinoid receptor activation correlates with the proapoptotic action of the β2-adrenergic agonist (R,R′)-4-methoxy-1-naphthylfenoterol in HepG2 hepatocarcinoma cells, J. Pharmacol. Exp. Ther., vol. 343, pgs 157-166 (2012); and Paul, et al., (R,R′)-4′-methoxy-1-naphthylfenoteroltargets GPR55-mediated ligand internalization and impairs cancer cellmotility, Biochem. Pharmacol., vol. 87, pgs 547-561 (2014). The effect of MNF on doxorubicin cytotoxicity in PANC-1 cells was measured using [^3H]-thymidine incorporation. In these studies, the cells were incubated with either fresh medium containing vehicle (0.01% DMSO) or MNF (1 μM) for 24 hours. The spent media was removed and replaced with fresh media supplemented with doxorubicin (0-10 μM) and the cells incubated for an additional 24 hours. [^3H]-Thymidine (1 μCi per well) incorporation into DNA was then performed for 16 hours. Cells were washed with PBS, lysed in 600 μt of 0.1 N NaOH, and the radioactivity was measured by liquid scintillation counting. Three independent experiments were conducted on separate days. Similar experiments were conducted to investigate the effect of MNF on the cytotoxicity of gemcitabine (0-10 μM) in PANC-1 cells. The effects of MNF (1 μM) on the cytotoxicity of doxorubicinin MDA-MB-231 cells and of MNF (0.01 μM) on the cytotoxicity of doxorubicin in U87MG cells were investigated using the protocol described above.
(§2) Sigmoidal dose-response curves (IC50 curves) were determined using the ‘nonlinear regression (curve fit)’ model contained within the Prism 4 software package (GraphPad Software, Inc., La Jolla, Calif.) running on a personal computer. For immunoblot analyses, statistical comparisons between treated and control groups were performed using unpaired Student's t-tests. Data are expressed as relative fold change ±standard deviation. P values ≤0.05 were considered significant.

[2] = test system: MDA-MB-231 breast cancer cells; assay: [3H]-thymidine incorporation (proliferation / cytotoxicity) in MDA-MB-231 cells; type: cell-based, human; conditions: for IC50: Homo sapiens
Experimental: as §1, §2

MCF-7 cells = assay: [3H]-thymidine incorporation (proliferation) in MCF-7 cells; type: cell-based, human; conditions: MCF-7 (low GPR55), MNF 24 hours
Experimental: as §1, with “Similar experiments were conducted to investigate the effect of MNF on the cytotoxicity of gemcitabine (0-10 μM) in PANC-1 cells. The effects of MNF (1 μM) on the cytotoxicity of doxorubicinin MDA-MB-231 cells and of MNF (0.01 μM) on the cytotoxicity of doxorubicin in U87MG cells were investigated using the protocol described above.” left out

[3] = test system: HIF-1α, phospho-PKM2 (Ser37), phospho-β-catenin (Tyr333) in PANC-1 nuclear extracts; assay: Western blot of nuclear translocation of cancer biomarkers in PANC-1 nuclear extracts; type: cell-based, human; conditions: PANC-1, 1 μM, 10 minutes, with and without AM251 1 μM 20 minutes
Experimental: Nuclear protein extraction was carried out using a NE-PER Kit followed by the determination of the levels of HIF-1α and phospho-active forms of β-catenin (Tyr333) and PKM2 (Ser37) by immunoblotting. The same experiment was repeated three times on three separate days.
Cells were lysed in radioimmuno precipitation buffer containing EGTA and EDTA (Boston BioProducts, Ashland, Mass.) supplemented with protease inhibitor cocktail (Sigma-Aldrich). Protein concentration in clarified lysates was determined using the bicinchoninic acid reagent (Thermo Fisher Scientific). Proteins (20 μg/well) were separated on 4-12% precast gels (Invitrogen, Carlsbad, Calif.) using SDS-polyacrylamide gel electrophoresis under reducing conditions and then electrophoretically transferred onto polyvinylidenefluoride membrane (Invitrogen). […] All membrane-bound primary antibodies were detected with horseradish peroxidase-conjugated secondary antibodies (Santa Cruz Biotechnology, Dallas, Tex.) and visualized by enhanced chemiluminescence (ECL Plus, GE Healthcare, Piscataway, N.J.). Quantification of the protein bands was performed by volume densitometry using ImageJ software (National Institutes of Health, Bethesda, Md.) and normalization to β-actin or Lamin A/C. […]

[4] = test system: phospho-PKM2 (Ser37) in PANC-1 cells; assay: Immunofluorescence confocal measurement of nuclear phospho-PKM2; type: cell-based, human; conditions: PANC-1, 1 μM 10 minutes, basal and after AM251 stimulation
Experimental: Measurement of nuclear phospho-PKM2. PANC-1 cells were seeded on Lab-Tek II CC2 chamber slides (Thermo Scientific Nunc, Rochester, N.Y.) and grown until they reached >70% confluence. […] The GPR55 agonist AM251 (1 μM) was added for 20 minutes where indicated. Cells were washed twice with PBS, fixed with 4% (v/v) paraformaldehyde (Sigma-Aldrich) in PBS for 20 minutes at room temperature, followed by 3×PBS washes and permeabilization with 0.1% Triton X-100 (Sigma-Aldrich) for 15 minutes. Next, the cells were incubated with 10% goat serum for 1 hour, followed by overnight incubation with rabbit polyclonal anti-phospho-PKM2 antibody (Ser37, 1:200) at 4° C. After 3×PBS washes, Alexa Fluor 488-conjugated goat anti-rabbit antibody (Invitrogen; 1:1000) was added to the slides for 2 hours at room temperature. The slides were washed with PBS and mounted in Prolong Gold antifade mounting medium containing DAPI (4′,6-diamidino-2-phenylindole) (Invitrogen) for nuclear counterstaining. The slides were cured for 24 hours at room temperature in the dark, after which images were acquired with a Zeiss LSM 710 confocal microscope using Carl Zeiss LSM software (Thorn-wood, NY). ImageJ software was used to quantify the changes in the nuclear pool of phospho-PKM2 levels.

PANC-1 cells [5] = assay: Intracellular uptake of doxorubicin (fluorescence imaging) in PANC-1 cells; type: cell-based, human; conditions: PANC-1, MNF 1 μM 24 hours, then doxorubicin 0.125 μM 2 hours, vs control cells
Experimental: (§3) PANC-1 and MDA-MB-231 cells were seeded on Lab-Tek II CC2 chamber slides and grown until they reached >70% confluence. The original media was removed and cells were incubated in fresh media supplemented with vehicle (0.01% DMSO) or 1 μM MNF for 24 hours, after which doxorubicin (0.125 μM) was added for an additional 2 hours. The cells were washed with PBS and the images were acquired with a Zeiss axiovert 200 microscope using standard FITC filter (#09 filter set) and Carl Zeiss LSM software. ImageJ software was used to quantify the changes in the nuclear accumulation of doxorubicin defined as ring-shaped regions of interest (ROI).

MDA-MB-231 cells = assay: Intracellular uptake of doxorubicin (fluorescence imaging) in MDA-MB-231 cells; type: cell-based, human; conditions: MDA-MB-231, MNF 1 μM 24 hours, then doxorubicin 0.125 μM 2 hours, vs control cells
Experimental: as §3

[6] = test system: Pgp, BCRP in PANC-1 nuclear extracts; assay: Immunoblot of Pgp and BCRP in PANC-1 nuclear extracts; type: cell-based, human; conditions: MNF 0.5 and 1 μM, 24 hours
Experimental: Values were normalized to PANC-1 cells treated with 0.01% DMSO as control. Data are expressed as mean±SD from 3 independent experiments. FIG. 5C presents fluorescence imaging of intracellular doxorubicin in PANC-1 cells pretreated with MNF (1 μM) for 24 hours and followed with 0.125 μM of doxorubicin treatment for 2 hours. The upper panel of FIG. 5D presents representative immunoblot depicting protein levels of Pgp, BCRP, and lamin A/C in PANC-1 nuclear extracts after cell treatment with 0.5 and 1 μM of MNF for 24 hours. In the lower panel of FIG. 5D, protein bands were quantified by densitometry and the data normalized to lamin A/C levels and plotted relative to cells treated with 0.01% DMSO as control.
Cells were lysed in radioimmuno precipitation buffer containing EGTA and EDTA (Boston BioProducts, Ashland, Mass.) supplemented with protease inhibitor cocktail (Sigma-Aldrich). Protein concentration in clarified lysates was determined using the bicinchoninic acid reagent (Thermo Fisher Scientific). […] All membrane-bound primary antibodies were detected with horseradish peroxidase-conjugated secondary antibodies (Santa Cruz Biotechnology, Dallas, Tex.) and visualized by enhanced chemiluminescence (ECL Plus, GE Healthcare, Piscataway, N.J.). […]

[7] = test system: AKT phosphorylation (PANC-1 cells); assay: Western blot of phospho-active (Ser473) and total AKT in PANC-1 cells; conditions: PANC-1, 1 μM 10 minutes, basally and after AM251 20 minutes
Experimental: (§4) In the first series of experiments, PANC-1 cells were incubated with media containing vehicle (0.01% DMSO) or MNF (10, 100, 500 and 1000 nM) for 24 hours. The medium was removed, and cells were collected and processed for immunoblot analysis. […] Cell lysates were processed for immunoblot analysis, focusing on the expression of selected cancer cell biomarkers. In the third series of experiments, serum-starved PANC-1 cells were pretreated with vehicle (0.01% DMSO), 1 μM MNF, or 1 μM CID for 10 minutes followed by a 20 minute incubation with and without 1 AM251. Cell lysates were processed for immunoblot analysis and the levels of phospho-active (Ser473) and total forms of AKT were determined. All experiments were repeated three times on three separate days, unless stated otherwise.

GPR55 (PANC-1 cells) = assay: Western blot of cancer biomarker and MDR proteins in PANC-1 cell lysates; conditions: for AM251-induced increase in BCRP expression: PANC-1, antagonist 1 μM before AM251 1 μM
Experimental: as §4
Cells were lysed in radioimmuno precipitation buffer containing EGTA and EDTA (Boston BioProducts, Ashland, Mass.) supplemented with protease inhibitor cocktail (Sigma-Aldrich). Protein concentration in clarified lysates was determined using the bicinchoninic acid reagent (Thermo Fisher Scientific). […] Western blots were performed according to standard methods, which involved a blocking step in Tris-buffered saline/0.1% Tween-20 (TBS-T) supplemented with 5% non-fat milk and incubation with primary antibodies of interest. All membrane-bound primary antibodies were detected with horseradish peroxidase-conjugated secondary antibodies (Santa Cruz Biotechnology, Dallas, Tex.) and visualized by enhanced chemiluminescence (ECL Plus, GE Healthcare, Piscataway, N.J.). Quantification of the protein bands was performed by volume densitometry using ImageJ software (National Institutes of Health, Bethesda, Md.) and normalization to β-actin or Lamin A/C. […] The antibodies were used at the dilution recommended by the manufacturers.

U87MG glioblastoma cells = assay: [3H]-thymidine incorporation (doxorubicin cytotoxicity) in U87MG cells; type: cell-based; conditions: Homo sapiens, U-87 MG
Experimental: [^3H]-Thymidine incorporation studies. Cells were seeded in 24-well plates at 2.5×10^4 cells per well and grown for 24 hours at 37° C. The effect of MNF (0-10 μM) on [^3H]-thymidine incorporation into PANC-1, MDA-MB-231, and MCF-7 cells was investigated following procedures previously described in Paul, et al., Cannabinoid receptor activation correlates with the proapoptotic action of the β2-adrenergic agonist (R,R′)-4-methoxy-1-naphthylfenoterol in HepG2 hepatocarcinoma cells, J. Pharmacol. Exp. Ther., vol. 343, pgs 157-166 (2012); and Paul, et al., (R,R′)-4′-methoxy-1-naphthylfenoteroltargets GPR55-mediated ligand internalization and impairs cancer cellmotility, Biochem. Pharmacol., vol. 87, pgs 547-561 (2014). The effect of MNF on doxorubicin cytotoxicity in PANC-1 cells was measured using [^3H]-thymidine incorporation. In these studies, the cells were incubated with either fresh medium containing vehicle (0.01% DMSO) or MNF (1 μM) for 24 hours. […] Cells were washed with PBS, lysed in 600 μt of 0.1 N NaOH, and the radioactivity was measured by liquid scintillation counting. […]
Sigmoidal dose-response curves (IC50 curves) were determined using the ‘nonlinear regression (curve fit)’ model contained within the Prism 4 software package (GraphPad Software, Inc., La Jolla, Calif.) running on a personal computer. […] Data are expressed as relative fold change ±standard deviation. […]

[8] = PANC-1, MNF 1 μM 24 hours, medium replaced, then drug 0-10 μM 24 hours, read-out: calculated IC50 of chemotherapeutic drug, after MNF pretreatment
[9] = PANC-1, vehicle (0.01% DMSO) 24 hours, then drug 0-10 μM 24 hours, read-out: calculated IC50 of chemotherapeutic drug, without MNF pretreatment

Structure (SMILES): COc1ccc(C[C@@H](C)NC[C@H](O)c2cc(O)cc(O)c2)c2ccccc12 [MNF, (R,R′)-4′-methoxy-1-naphthyl-fenoterol]
- IC50 (PANC-1 cells [1]; PANC-1, MNF 0-10 μM, 24 hours, mean±SD, read-out: IC50, inhibition in cell growth): 0.65 ± 0.25 µM
- maximum reduction in cell growth (PANC-1 cells [1]; PANC-1, MNF 0-10 μM, 24 hours, p<0.001): 42%
- IC50 ([2]; MDA-MB-231, MNF 24 hours, read-out: IC50, inhibition in cell growth): 0.106 ± 0.003 µM
- dose-dependent inhibition in cell growth ([2]; MDA-MB-231, MNF 24 hours): 50%
- effect on the growth of MCF-7 cells (MCF-7 cells): no significant effect
- constitutive and AM251-induced nuclear accumulation of HIF-1α and phosphoactive forms of PKM2 (Ser37) and β-catenin (Tyr333) [3]: significantly abrogated
- nuclear pool of phosphoactive form of PKM2 [4]: markedly reduced
- uptake and nuclear retention of doxorubicin (PANC-1 cells [5]): enhancement
- uptake and nuclear retention of doxorubicin (MDA-MB-231 cells): enhanced uptake and nuclear retention
- nuclear pool of Pgp and BCRP [6]: marked reduction
- activating phosphorylation of AKT [7]: significantly decreased
- expression of cancer biomarkers (EGFR, β-catenin, PKM2, cyclin D1, Pgp, BCRP, MRP1, MRP5) (GPR55 (PANC-1 cells); PANC-1, MNF 10-1000 nM, 24 hours): dose-dependently reduces
- AM251-induced increase in BCRP expression (GPR55 (PANC-1 cells)): blocked

Structure (SMILES): Cc1ccc(-c2n[nH]c3c2C(c2cccc(O)c2)N(c2ccc(C(=O)O)cc2)C3=O)cc1 (centres unmarked) [CID]
- constitutive and AM251-induced nuclear accumulation of HIF-1α and phosphoactive forms of PKM2 (Ser37) and β-catenin (Tyr333) [3]: significantly abrogated
- nuclear pool of phosphoactive form of PKM2 [4]: markedly reduced
- activating phosphorylation of AKT [7]: significantly decreased
- induction of EGFR, BCRP, PKM2 by AM251 (GPR55 (PANC-1 cells); PANC-1, 1 μM pretreatment 30 minutes, then AM251 1 μM 24 hours): blocked
- basal levels of EGFR, BCRP, and PKM2 proteins (GPR55 (PANC-1 cells); PANC-1, 1 μM, 24 hours): significantly reduced
- AM251-induced increase in BCRP expression (GPR55 (PANC-1 cells)): blocked

Structure (SMILES): Nc1ccn([C@@H]2O[C@H](CO)[C@@H](O)C2(F)F)c(=O)n1 [gemcitabine]
- IC50 (PANC-1 cells [1]; [8]): 0.153 ± 0.003 µM
- IC50 (PANC-1 cells [1]; [9]): 0.487 ± 0.003 µM
- fold decrease in calculated IC50 by MNF pretreatment (PANC-1 cells [1]; p<0.001): ~3 fold

Structure (SMILES): COc1cccc2c1C(=O)c1c(O)c3c(c(O)c1C2=O)C[C@@](O)(C(=O)CO)C[C@@H]3O[C@H]1C[C@H](N)[C@H](O)[C@H](C)O1 [doxorubicin]
- IC50 (PANC-1 cells [1]; [8]): 0.051 ± 0.002 µM
- IC50 (PANC-1 cells [1]; [9]): 0.193 ± 0.004 µM
- fold decrease in calculated IC50 by MNF pretreatment (PANC-1 cells [1]; p<0.001): ~4 fold
- IC50 ([2]; MDA-MB-231, MNF 1 μM 24 hours, then doxorubicin 0-10 μM 24 hours, p<0.05, read-out: calculated IC50 of doxorubicin, after MNF pretreatment): 0.255 ± 0.013 µM
- IC50 ([2]; MDA-MB-231, doxorubicin 0-10 μM 24 hours, read-out: calculated IC50 of doxorubicin, without MNF pretreatment): 0.57 ± 0.014 µM
- IC50 (U87MG glioblastoma cells; MNF 0.01 μM 24 hours, then doxorubicin 24 hours, p<0.001, read-out: calculated IC50 of doxorubicin, after MNF pretreatment): 0.0011 ± 0.0005 µM
- IC50 (U87MG glioblastoma cells; doxorubicin 24 hours, read-out: calculated IC50 of doxorubicin, without MNF pretreatment): 0.006 ± 0.0008 µM
